Results from publication PMC12863215, “The vacuolar transporters MaMATE11 and MaMATE14 affect blue flower coloration in grape hyacinth (Muscari)” (Horticulture Research, 2025).

What was measured:
MaMATE14 = system: T1, MaMATE14; assay: uptake into yeast microsomal vesicles, HPLC, Lineweaver-Burk; type: biochemical, Muscari aucheri; conditions: transport; 5 mM MgATP, 25 mM Tris-MES pH 8.0, 50 mM KCl, 25 °C, 20 min; minus-ATP subtracted
T1 construct: full-length cDNA in pYES2, expressed in Saccharomyces cerevisiae BY4741; microsomal vesicles; 510 residues; 12 predicted transmembrane segments

MaMATE11 = system: T2, MaMATE11; assay: as above; type: biochemical, Muscari aucheri; conditions: transport; 5 mM MgATP, 25 mM Tris-MES pH 8.0, 50 mM KCl, 25 °C, 20 min; minus-ATP subtracted
T2 construct: full-length cDNA in pYES2, expressed in Saccharomyces cerevisiae BY4741; microsomal vesicles; 441 residues; 10 predicted transmembrane segments

Km (MaMATE14)	Km (MaMATE11)	SMILES
43.8 µM	57.4 µM	Oc1ccc([C@H]2Oc3cc(O)cc(O)c3C[C@H]2O)cc1 [(−)-epiafzelechin]
45.3 µM	27 µM	OC[C@H]1O[C@@H](Oc2cc3c(O[C@@H]4O[C@H](CO)[C@@H](O)[C@H](O)[C@H]4O)cc(O)cc3[o+]c2-c2ccc(O)c(O)c2)[C@H](O)[C@@H](O)[C@@H]1O [cyanidin-3,5-di-O-glucoside]
61.4 µM	57.5 µM	OC[C@H]1O[C@@H](Oc2cc3c(O)cc(O)cc3[o+]c2-c2ccc(O)c(O)c2)[C@H](O)[C@@H](O)[C@@H]1O [cyanidin-3-O-glucoside]

SMILES	Km (MaMATE14)	Km (MaMATE11)
O=c1c(O)c(-c2ccc(O)cc2)oc2cc(O[C@@H]3O[C@H](CO)[C@@H](O)[C@H](O)[C@H]3O)cc(O)c12 [kaempferol 7-O-glucoside]	57.4 µM	60.2 µM
